According to a melting point compilation (Tetko et al.; mined from patent text by program, amines drawn as free bases though some values may be those of a salt):

melting point [°C]	SMILES
122 to 125	CC(=O)OC1CSC(Oc2cncc(-c3ccnc(F)c3)c2)C(OC(C)=O)C1OC(C)=O (stereo not drawn)
127 to 130	CCCOC(C)c1cccc2[nH]c3cnc(C(=O)OCC)c(COC)c3c12 (stereo not drawn)
187 to 189	CN(C)Cc1ccc(CSCCNC2=NS(=O)(=O)C(S(C)(=O)=O)=C2N)o1
271	Cc1nc2cc(C(c3cccc(Cl)c3)n3ccnc3)ccc2[nH]c1=O (stereo not drawn)
178 to 180	Nc1cnc(-c2cc(Cl)cc(Cl)c2Cl)c(N)n1
> 320	O=C(CCN1CCCC1)Nc1ccc2c(=O)c3ccc(NC(=O)CCN4CCCC4)cc3[nH]c2c1
93 to 94	CC(C)C[C@H](NC(=O)OCc1ccccn1)C(=O)N[C@@H](Cc1ccccc1)C(=O)CSCc1ccco1
180 to 183	O=C(O)COc1ccc2c(=O)c3c(F)cccc3oc2c1
154 to 155	CCNc1cccc(-c2ccnc3c(C(=O)c4cccs4)cnn23)c1
210	Oc1ccc(-c2ccc3ccc(O)cc3c2)cc1
145	O=C(NCCc1ccccc1)c1ccccc1-c1ccccc1CNS(=O)(=O)c1cccc([N+](=O)[O-])c1
130 to 133	Cc1nc[nH]c1CSCCNC(=N)NS(N)(=O)=O
130	CC(=O)Nc1ccccc1C(=O)C=Cc1ccncc1
138 to 140	CCCS(=O)c1cccnc1S(=O)(=O)NC(C)(C)C (stereo not drawn)
98	BrC/C(=C(\CBr)c1ccccc1)c1ccccc1
149	O=c1[nH]c2cc(Cl)ccc2n1CCCO
150 to 155	COc1ccc(C(OCC2OC(n3cnc4c(=O)[nH]c(NC(=O)Cc5ccc(Br)cc5)nc43)CC2O)(c2ccccc2)c2ccc(OC)cc2)cc1 (stereo not drawn)
125 to 128	Cc1cc(CN2N=C(C(F)(F)C(F)(F)F)NC2(O)C(C)(C)C)ccc1[N+](=O)[O-] (stereo not drawn)
149 to 151	CCCCc1c(C)c(NC(=O)CC(C)(C)C)c(C)c2c1OCC2c1ccc(C(C)C)cc1 (stereo not drawn)
172 to 175	CNC(=O)c1ccc(OCC(O)CNC(C)COc2ccc(O)c(C(N)=O)c2)cc1 (stereo not drawn)
229	Nc1cc(F)ccc1C(=O)NCCN1CCC(n2c(=O)[nH]c3ccccc32)CC1
158 to 161	Cc1ncoc1CN1CCc2c(c3cccc(F)c3n2C)C1=O
102 to 103	COc1cc(OC)c2c(-c3cc(F)cc(F)c3)coc2c1
62 to 64	CCOC(=O)CCc1cc(CCC(=O)O)cc(Cc2cccnc2)c1
155 to 157	CCNc1cccnc1N1CCN(C(=O)c2ccc(C(=O)O)cn2)CC1

melting point [°C]	SMILES
112 to 113	CCOC(=O)COc1cc2c(c(Cl)c1Cl)C(=O)C(CC#C[Si](C)(C)C)(c1ccccc1)C2 (stereo not drawn)
144 to 147	COC(=O)[C@@H](Cc1ccc(-c2ncnc3c2ncn3[C@@H]2CCCCO2)cc1)NC(=O)OC(C)(C)C
88 to 89	COC(=O)c1ccc(OCC(O)CNC(C)(C)C)cc1 (stereo not drawn)
117 to 118	CC(=O)c1sc(-c2ccncc2)c(C)c1-c1ccncc1
156 to 162	CN(C)c1cccc(Oc2ccccc2N2CCN(CCCc3c[nH]c4ccccc34)CC2)c1
105 to 106	CN(CC(=C1NCCCS1)[N+](=O)[O-])c1ccccc1
137 to 139	Cc1ccc(-n2nc(C(F)F)cc2-c2ccc(S(C)(=O)=O)cc2)cc1Cl
83.5	Clc1ccccc1COc1c(Cl)cc(OCC=C(Br)Br)cc1Cl
269 to 271	Nc1c(F)c(F)c(F)c2c1c(=O)c(C(=O)O)cn2C1CC1
149 to 151	Clc1cc(C#Cc2nccs2)c2oc(Cc3ccccc3Cl)nc2c1
127 to 129	O=C1CN2C(=N1)NCc1c(Cl)cccc12
30	CC(=O)CCc1ccc(-c2ccccc2F)cc1
111 to 112	Cc1ccccc1C1(O)c2cc(NC(=O)CC(C)(C)C)c(C)c(C)c2OC1(C)C (stereo not drawn)
118 to 120	CCCCc1ncc(CC(Cc2ccccc2)C(=O)O)n1Cc1ccccc1Cl (stereo not drawn)
135 to 137	CCC(Oc1cc(Cl)cc(Cl)c1)C(=O)NCc1ccccc1C (stereo not drawn)
270 to 272	CC(=O)OC1(C(C)=O)C(C)CC2C3CC(C)C4=CC(=O)C=CC4(C)C3C(O)CC21C (stereo not drawn)
107 to 109	O=C(Cl)[C@@H]1CCCN1S(=O)(=O)c1ccc2ccccc2c1
107 to 109	Oc1cccc2c1ccn2CCOCCC(c1ccccc1)c1ccccc1
110	CC(C)(C)OC(=O)N[C@H]1CC[C@H](CCN2CCCC2)CC1
171 to 172	COc1cc(OC)c(OC)c(-c2ccc(N(C)CCN(C)c3ccc(-c4cc(OC)cc(OC)c4OC)nc3)cn2)c1
131 to 132	O=C(NC/C=C\COc1cc(CN2CCCCC2)ccn1)NC1CCCCC1
141	CCOC(=O)C(=O)Cc1ncc([N+](=O)[O-])n1C
158 to 160	FC(F)C(F)(F)Oc1cccc(Nc2nccc(-c3cncc4ccccc34)n2)c1
245 to 248	CCOC(=O)C=Cc1ccc(C=Cc2ccc(C=CC(=O)O)cc2)cc1
109 to 111	O=C(O)Cc1ccc2ccn(Cc3ccccc3)c2c1

melting point [°C]	SMILES
71 to 72	CCCC(Cl)C(=O)c1ccccc1 (stereo not drawn)
276 to 278	O=c1c2c(Cc3cccc(O)c3)n[nH]c2c2cccnc2n1-c1ccccc1
224 to 225	CNc1nc(OC)c(C(=O)O)cc1Br
152 to 155	COC(=O)c1cc2c3cc(C)ccc3n(C)c2s1
140	COC(=O)CCCCCNC(=O)c1csc(NC(=O)NCc2ccccc2)n1
118 to 120	CN(C)CC#CC1=Cc2ccccc2Sc2ccc(Cl)cc21
210 to 212	O=C1CCC(N2C(=O)c3cccc(OCc4nc(CN5CCOCC5)cs4)c3C2=O)C(=O)N1 (stereo not drawn)
178	CC12CCCC1C1CCc3cc(F)ccc3C1CC2 (stereo not drawn)
123 to 125	CCOCc1nc2c(N)nc(C)c(C)c2n1CCCON=C(C)C
121 to 123	CCCCn1nc(CCc2ccccc2)nc1Cc1ccc(-c2ccccc2-c2nnn[nH]2)nc1
59 to 61	CCOC(=O)c1c(C)nc2cc(C)ccn12
143 to 144	COC(=O)[C@@H](NC(=O)c1ccc(C#Cc2ccc(C=O)cc2)cc1)[C@@H](C)O
76.5 to 78	COc1ccc(-c2cccc(O)c2)cc1
203 to 205	COc1cc(C(O)C#Cc2cnc(N)nc2N)cc(OC)c1OC (stereo not drawn)
247	Cc1c(-c2cccnc2)ccc2c(=O)c(C(=O)O)cn(C3CC3)c12
151 to 152	CCOC(=O)Cn1c(=O)n(Cc2ccc(Cl)cc2)c(=O)c2c(C)c(C)sc21
228 to 232	CCC(=O)C(C=O)=Cc1cc(O)c(O)c(C#N)c1
119	O=C(O)Cc1ccc(CNC(=O)C2Cc3ccccc3N2S(=O)(=O)c2ccc(-c3ccc(F)cc3Cl)cc2)cc1 (stereo not drawn)
186 to 188	COc1cccc(Cl)c1C1Cc2c(ccn2C)C2C(=O)NC(=O)C12 (stereo not drawn)
112 to 113	O=C(O)COc1ccc(SCc2cc(-c3ccc(C(F)(F)F)cc3)on2)c2c1CCCO2
126	CCCCCc1ccc(-c2cnc(-c3ccc(C#N)cc3)nc2)cc1
77	CC(NC(N)=S)c1ccc(NS(C)(=O)=O)cc1 (stereo not drawn)
238 to 240	CNc1nc(-c2cccc(C(=O)Nc3cccnc3)c2)c2cc(OC)c(OC)cc2n1
85.5 to 86.5	CCOC(=O)c1c(-c2ccc(F)cc2)c2n(c1C(C)C)CCCC2
145 to 157	CC(=O)NNC(=S)Nc1cc(C)ccc1Cl

melting point [°C]	SMILES
117 to 119	Cc1cn(-c2cccc(N)c2)cn1
119 to 121	COCCSNS(=O)(=O)c1ccccc1
120 to 122	CCc1nccn1CCCNC(=O)c1ccc(Cl)cc1
76	CC(C)=NOCC(=O)O
124 to 125	CN1CCN(C2=Nc3ccncc3Oc3ccccc32)CC1
147 to 148	CCC1CCCCN1CCC(=O)N1c2ccccc2NC(=O)c2ccccc21 (stereo not drawn)
300 to 302	CN1CC2c3ccc(C=O)n3Cc3ccccc3N2C(=O)C1=O (stereo not drawn)
160 to 161	O=C1CSc2cccc(Cl)c2N1
76 to 78	N#Cc1cc2c(nc1N1CCCCCC1)CCCC2=O
129 to 130	c1ccc(CN2CCC(CCc3noc4cc(N5CCOCC5)ccc34)CC2)cc1
192	Nc1ccc2c(c1)C(c1ccccc1Cl)=CCC(=O)N2
250 to 251	CN1C(=O)C(C)(C)C(=O)Nc2ccc(C#N)cc21
198 to 200	CCOc1nc(N2CCN(C(=O)CCC(=O)O)CC2)nc(N2CCS(=O)CC2)c1[N+](=O)[O-]
189 to 190	CC(C)(O)CNc1c([N+](=O)[O-])cnc2cc(Br)cnc12
160 to 161	Cc1nc2nc(SCc3ccccc3)nn2cc1Cl
165 to 166	CC(C)CCCC(C)C1CCC2C3CC=C4CC(NCCCNC(=O)CCCCCNc5ccc([N+](=O)[O-])cc5[N+](=O)[O-])CCC4(C)C3CCC12C (stereo not drawn)
96 to 97	Cc1ccc(-c2c(C#N)cnc3ccccc23)cc1
96	CCCNS(=O)(=O)c1cc(C(=O)CBr)ccc1Cl
179 to 181	Cc1cc(C(C)(C)CC(C)(C)C)c(O)c(C)c1CC(N)=O
232 to 235	Nc1nnc(-c2cc(Cl)cc(Cl)c2Cl)c(N)n1
132	CCOC(=O)c1c(N2CCN(C(=O)c3cccs3)CC2)c2cnccc2n(Cc2ccc(F)cc2)c1=O
126 to 128	N#CCc1ccc(NC(=O)C(F)(F)C(F)(F)C(F)(F)C(F)(F)F)cc1
77 to 78	O=C(NC1CCCCC1)OC1CCCCC1
262 to 264	NC(=O)COc1c(-c2ccccc2)c(=O)[nH]c2cc(Cl)ccc12

SMILES	melting point [°C]
CC1=C(CC(NC(=O)c2ccc(Cl)cc2)NC(=N[N+](=O)[O-])Nc2cccnc2)C(C)(C)CCC1 (stereo not drawn)	217 to 218
Cc1c2c(c(Br)n1C)NC(=O)CN=C2c1ccccc1	200 to 202
OCc1ccc2ccc3cccc4ccc1c2c34	125 to 126
CN1C(=O)CCC2(C)C1=CCC1C2CCC2(C)C(O)CCC12 (stereo not drawn)	181 to 183
